# Patent US20150140109A1, “DOCETAXEL-BASED PROLONGED-RELEASE CANCER TREATMENT DRUG” (OY FILANA LTD, priority 2012, published 2015)
# Tested on: acinic cell carcinoma of the glandula mammaria of the NZB mouse Ca 755
# Assay: Antitumor activity in mice inoculated with Ca755 mammary adenocarcinoma (tumor growth kinetics, lifetime)
# Type: in vivo, C57B1/6 female mice
# Protocol: To investigate the antitumor activity of a new dosage form of docetaxel in the composition with PLGA 50/50 the acinic cell carcinoma of the glandula mammaria of the NZB mouse Ca 755 was chosen. As the comparison object free docetaxel substance was used. The experiments were carried out on C57B1/6 female mice with the body weight of 18-20 g.
# The anti-tumor activity of the preparations under research was estimated on the basis of the comparative analysis of tumor growth kinetics and comparing the lifetime in test groups and control groups of animals.
# The introduction of both the docetaxel-based prolonged-release drug and the free docetaxel was started 48 hours after tumor inoculation.
smiles,measurement,setting,value
"CC(=O)O[C@@]12CO[C@@H]1C[C@H](O)[C@@]1(C)C(=O)[C@H](O)C3=C(C)[C@@H](OC(=O)[C@H](O)[C@@H](NC(=O)OC(C)(C)C)c4ccccc4)C[C@@](O)([C@@H](OC(=O)c4ccccc4)[C@H]21)C3(C)C [docetaxel substance, docetaxel]",period for which tumor growth inhibition above 50% is retained,even for the dose of 20 mg/kg,≤ 17 days
same,inhibiting effect upon the tumor growth,introduction started 48 hours after tumor inoculation,strong inhibiting effect
